EP2874643B1, “OSTEOPROTEGERIN DERIVED COMPOSITION AND USE THEREOF” (R-Pharm International, LLC, priority 2012, dated 2013)
Marks after values point to notes of the source that are not given here.

Legend:
[1] = system: MDA-MB-468 human breast cancer cells; assay: murine bone lytic model of human breast cancer (intratibial inoculation); conditions: 0.1 mg/kg, i.v.; for Mean X-Ray Score of Bone Lysis in Inoculated Tibiae: scale 0 (no lysis) to 4, enlarged muscle + 0.5
[2] = system: MDA-MB-468 human breast cancer cells; conditions: mouse, in vivo
[3] = biological target: RANKL (receptor activator of NF-kappaB ligand); assay: cell-based or functional assay
[4] = MicroCT scan of inoculated tibia at termination, mean

Molecule | Survival (Number Alive/Total) ([1]; 3 times weekly for 6 weeks, end of study) | Mean X-Ray Score of Bone Lysis in Inoculated Tibiae ([1]; 6 weeks Post-Inoculation) | Mean X-Ray Score of Bone Lysis in Inoculated Tibiae ([1]; 8 weeks Post-Inoculation) | Structure Model Index (SMI) [1, 4] | Total Bone Volume (TBV) [1, 4] | Trabecular Bone Volume 3 (Tb.BV) [1, 4] | Trabecular Pattern Factor (Tb.Pf) [1, 4] | adverse clinical signs [2] | concentration that completely blocks RANKL-induced osteoclast differentiation (RAW264.7 cells) [3] [ng/mL] | inhibition of RANKL-induced osteoclast differentiation (RAW264.7 cells), EC50 [3] [mg/L]
O=P(O)(O)C(O)(Cn1ccnc1)P(=O)(O)O [Zometa, Zoledronic Acid] | 12/12 | 0.2 ^a | 0.5 ^a | 1.831 ^a | 6.799 ^a mm^3 | 0.614 ^a mm^3 | 10.458 ^a mm^--1 | No adverse clinical signs were observed |  | 
hOPG-hIgG1-Fc polypeptide of SEQ ID NO. 1 (Fc fusion) |  |  |  |  |  |  |  |  | 100 | 0.05
